Assays:
[1] = molecular target: T1, 15-lipoxygenase from Glycine max (Glycine max, UniProt P08170); assay: Soybean 15-LOX inhibition assay (ferrous oxidation-xylenol orange); format: biochemical; settings: linoleic acid 140 µM, pH 7.4, 25°C
T1 construct: purchased Sigma (Germany)
T1 sequence (P08170 1-839): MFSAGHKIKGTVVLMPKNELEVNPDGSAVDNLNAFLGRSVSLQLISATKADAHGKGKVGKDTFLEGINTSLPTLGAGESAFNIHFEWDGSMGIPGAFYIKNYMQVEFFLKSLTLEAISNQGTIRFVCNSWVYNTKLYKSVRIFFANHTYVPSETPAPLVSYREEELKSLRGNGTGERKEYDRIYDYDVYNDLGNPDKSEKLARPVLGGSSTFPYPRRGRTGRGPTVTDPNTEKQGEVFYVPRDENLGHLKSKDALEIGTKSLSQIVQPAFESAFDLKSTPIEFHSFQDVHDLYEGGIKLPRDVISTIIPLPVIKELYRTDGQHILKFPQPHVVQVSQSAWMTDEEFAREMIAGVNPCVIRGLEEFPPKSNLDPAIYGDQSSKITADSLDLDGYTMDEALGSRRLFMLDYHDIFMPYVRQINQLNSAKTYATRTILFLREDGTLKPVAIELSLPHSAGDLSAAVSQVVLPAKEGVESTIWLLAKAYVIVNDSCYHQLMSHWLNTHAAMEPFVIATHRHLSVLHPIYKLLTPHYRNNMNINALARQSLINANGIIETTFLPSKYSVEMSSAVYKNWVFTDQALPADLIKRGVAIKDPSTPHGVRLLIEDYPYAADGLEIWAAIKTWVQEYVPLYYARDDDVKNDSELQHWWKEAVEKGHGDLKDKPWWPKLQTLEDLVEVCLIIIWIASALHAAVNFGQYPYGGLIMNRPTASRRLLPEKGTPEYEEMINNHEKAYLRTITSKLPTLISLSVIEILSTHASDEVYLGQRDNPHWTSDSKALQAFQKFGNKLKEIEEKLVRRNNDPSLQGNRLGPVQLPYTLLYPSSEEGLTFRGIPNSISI
Description: The assay was performed according to a previously described procedure ([Pinto et al., 2007]) with slight modifications. The assay is based on measuring the formation of the complex Fe3^+/xylenol orange in a spectrophotometer at 560 nm. 15-LOX from G. max was incubated with compounds or standard inhibitors at 25°C for 5 min. The concentration range of the samples were from 250 μM to 1.95 µM. Then linoleic acid (final concentration, 140 µM) in Tris-HCl buffer (50 mM, pH 7.4) was added and the mixture was incubated at 25°C for 20 min in the dark. The assay was terminated by the addition of 100 µL of FOX reagent consisting of sulfuric acid (30 mM), xylenol orange (100 µM), iron (II) sulfate (100 µM) in methanol/water (9:1). For the control, only LOX solution and buffer were pipetted into the wells. Blanks (background) contained the enzyme LOX during incubation, but the substrate (linoleic acid) was added after the FOX reagent. […] The LOX inhibitory activity was evaluated by calculating the percentage of the inhibition of hydroperoxide production from the changes in absorbance values at 560 nm after 30 min at 25°C. % inhibition = [(Acontrol – Ablank) – (Asample – Ablank)/(Acontrol – Ablank)] x100. Where Acontrol is the absorbance of control well, Ablank is the absorbance of blank well and Asample is the absorbance of sample well.

TNF-α = assay: Th1/Th2 cytokine measurement (Cytometric Bead Array) in LPS-stimulated Raw 264.7 cells, TNF-α; format: cell-based, Murine; settings: compound at 20 µM; for effect on TNF-α production (in words): vs stimulated and untreated control
Description: (§1) Raw 264.7 cells were seeded at 2 × 10^5 cells/mL in a 48-well microplate and allowed to adhere for 24 h, then treated with LPS 0.1 μg/mL and with compounds (1), (5) and (6) at 20 µM. Untreated cells and indomethacin (10 µM) were used as controls. After 24 h of incubation, the supernatant was collected and the amount of pro-inflammatory Th1 cytokines (IFN-γ, TNF-α, and IL-2) and anti-inflammatory Th2 cytokines (IL-4, IL-6, and IL-10) released measured. The experiment was performed according to the manufacturer’s instructions using BD™ Cytometric Bead Array (CBA) […] Th1/Th2 Cytokine Kit (BD-Biosciences), and data were acquired on a BD LSR Fortessa™ cell analyzer flow cytometer.

IL-2 = assay: Th1/Th2 cytokine measurement (Cytometric Bead Array) in LPS-stimulated Raw 264.7 cells, IL-2; format: cell-based, Murine; settings: compound at 20 µM, vs stimulated and untreated control
Description: as §1

IL-10 = assay: Th1/Th2 cytokine measurement (Cytometric Bead Array) in LPS-stimulated Raw 264.7 cells, IL-10; format: cell-based, Murine; settings: compound at 20 µM, LPS 0.1 μg/mL, 24 h; stimulated untreated control 0.88 pg/mL
Description: as §1

IC50 [1] [µM]	Structure (SMILES)	effect on TNF-α production (in words) (TNF-α)	effect on IL-2 production (in words) (IL-2)	IL-10 level (IL-10) [pg/mL]	TNF-α level (TNF-α; LPS 0.1 μg/mL, 24 h, stimulated untreated control 4356.86 pg/mL) [pg/mL]
45	CC(C)=CCC/C(C)=C/C[C@]12C[C@@H](CC=C(C)C)C(C)(C)[C@](C/C=C(\C)CCC=C(C)C)(C(=O)C(C(=O)c3ccc(O)c(O)c3)=C1O)C2=O [Compound 5, Guttiferone O]	significantly reduces	significantly reduces	2.05	–
53	CC(C)=CCC/C(C)=C/C[C@]12C[C@@H](CC=C(C)C)C(C)(C)[C@](CC=C(C)C)(C(=O)C(C(=O)c3ccc(O)c(O)c3)=C1O)C2=O [Compound 6, Guttiferone M]	moderate decrease	limited effect	1.77	–
63.9	CC(C)=CCc1c2c(c3oc4c(O)cccc4c(=O)c3c1O)C=CC(C)(C)O2 [Compound 1, Ananixanthone]	–	–	0.971	3854.61
